Bounds are passed on as bounds.

The test system of one experiment is MCF-7 cells. Nature of the experiment: In vitro cell activity assay (MCF-7, insulin stimulation, ELISA-One). The class given is cell-based. Particulars: Homo sapiens, MCF7, compound 2 hours in serum-free media, then 10 μg/ml insulin 30 min. The procedure:
Experimental Steps and Method Comprise:
1. MCF-7 cells were seeded at 2,5000 cells per well in a 96 well tissue culture plate in a complete media containing 10%0/FBS.
3. The cells were treated with 10 μg/ml insulin in serum-free media for 30 min.
4. During waiting period, lysis solution was prepared as below:
a) Enhancer Solution needs to be taken out from the refrigerator to be thawed.
b) Concentrated lysis solution was prepared by diluting Enhancer Solution 10-fold in 5× Lysis Buffer.
c) Lysis solution was prepared by diluting concentrated lysis solution 5-fold with ddH2O.
5. Any media were removed from wells and the wells were rinsed with PBS once quickly.
6. 50 μL of freshly prepared lysis solution were added into each well, with shaking at room temperature for 10 min.
7. After confirming that all cells get detached from wells, the lysis solution together with the cell debris was transferred to 1.5 ml tubes.
8. The tubes were vortexed several times to thoroughly mix the lysis solution and cells, and then, and then the mixture was centrifuged at 12,000 g for 10 min at 4° C.;
9. The desired number of ELISA-One microplate strips was determined. Unused strips were removed from frame and returned to storage pouch and seal. Wells for use in the assay were rinsed with 200 μL ddH2O to remove preservatives prior to use.
10. 50 μL of antibody mixture solution was added into each well. (Antibody mixture solution was prepared by mixing capture antibody reagent and detection antibody reagent equally, avoid vortexing)
11. 25 μL of lysate was added into each well of the ELISA-One microplate. The microplate was covered with adhesive seal and incubated for 1 hour at room temperature on a microplate shaker.
12. Each well was washed with 150 μL 1× wash buffer 3 times. After final wash, any remaining wash buffer was removed from wells. If necessary, leave microplate in 1× Wash Buffer for up to 30 min, until substrate mixture solution has been prepared.
13. The substrate mixture solution should be prepared when used, 100 μL of substrate mixture solution was added into each well, and then the microplate was sealed with tin foil and incubated at room temperature for 10 minutes on a microplate shaker.
14. 10 μL of stop solution was added into each well, and then mixed slightly (5-10 seconds) on a microplate shaker.
15. Corresponding ELISA-One filter set was installed to read the fluorescence signal intensity.
(In general: In an ELISA, binding on a coated surface is turned into a signal by an enzyme label.)

A further experiment addresses PI3K (p110α) (Homo sapiens, UniProt P42336). Kind of experiment: In vitro enzyme activity assay, PI3K (p110α) kinase, Method II (ADP-Glo assay). In kind it is biochemical. Further details: purchased Millipore 14-602-K. To be noted: read-out: PI3K (p110α) enzyme activity_IC50. The procedure: PI3K (p110α) kinase activities of the compounds in all the examples of the present invention were tested via the following two methods, respectively.
Dilution of the Compound:
The compound to be tested was diluted with a 3-fold concentration gradient, and 10 concentrations (from 10000 nM to 0.5 nM) were obtained in total.
50 nL of the compound was transferred to a reaction plate (PerkinElmer #6007299) and 3 μL of enzyme/substrate mixture (0.33 nM PI3Kalpha, Millipore #14-602-K/166.5 μM PIP2) was added. After 20 min incubation, 2 uL of ATP solution (100 uM) was added to initiate the reaction. After reacting for 2 hours at room temperature, 5 μL of ADP-Glo reagent was added to terminate the kinase reaction. Then the mixture was incubated at room temperature for 60 min to completely digest the remaining unreacted ATP, 10 uL of kinase detection reagent was added, and after 40 min incubation at room temperature, […] was readed on an Envision. PIP2, ATP, ADP-Glo and the kinase detection reagent were all from ADP-Glo kinase assay kit (Promega #V1792).
IC50 was calculated using standard 4-parameter fit method (Model205, XL-fit, iDBS).
A general note: ADP-Glo first removes unused ATP, then detects ADP through luciferase.

PI3K (p110α), sequence (P42336 whole entry): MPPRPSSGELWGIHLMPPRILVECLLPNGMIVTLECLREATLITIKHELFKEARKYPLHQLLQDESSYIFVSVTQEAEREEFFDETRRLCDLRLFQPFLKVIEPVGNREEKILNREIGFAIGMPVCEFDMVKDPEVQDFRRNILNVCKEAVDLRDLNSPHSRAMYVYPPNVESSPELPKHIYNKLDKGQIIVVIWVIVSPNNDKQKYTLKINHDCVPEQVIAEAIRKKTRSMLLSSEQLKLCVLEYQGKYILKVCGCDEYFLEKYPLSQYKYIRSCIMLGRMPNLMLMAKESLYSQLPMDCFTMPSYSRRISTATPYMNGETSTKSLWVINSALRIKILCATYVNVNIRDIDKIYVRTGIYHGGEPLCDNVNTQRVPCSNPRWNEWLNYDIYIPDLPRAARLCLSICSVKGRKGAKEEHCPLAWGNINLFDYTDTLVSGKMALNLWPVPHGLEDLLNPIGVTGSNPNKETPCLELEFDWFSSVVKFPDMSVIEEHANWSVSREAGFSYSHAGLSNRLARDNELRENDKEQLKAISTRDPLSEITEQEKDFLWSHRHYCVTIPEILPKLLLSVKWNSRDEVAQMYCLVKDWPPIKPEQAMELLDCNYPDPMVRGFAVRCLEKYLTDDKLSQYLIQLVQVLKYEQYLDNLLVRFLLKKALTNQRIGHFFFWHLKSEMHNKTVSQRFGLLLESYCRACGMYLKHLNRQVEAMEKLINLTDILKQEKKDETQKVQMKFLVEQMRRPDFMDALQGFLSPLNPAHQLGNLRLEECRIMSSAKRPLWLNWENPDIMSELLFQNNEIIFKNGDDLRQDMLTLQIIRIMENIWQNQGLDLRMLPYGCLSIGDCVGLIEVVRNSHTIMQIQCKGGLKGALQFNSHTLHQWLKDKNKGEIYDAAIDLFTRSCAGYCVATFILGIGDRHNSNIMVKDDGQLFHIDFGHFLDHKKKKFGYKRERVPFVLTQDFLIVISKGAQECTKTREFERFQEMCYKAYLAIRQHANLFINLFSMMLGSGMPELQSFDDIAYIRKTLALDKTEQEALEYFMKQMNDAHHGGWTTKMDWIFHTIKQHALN
PI3K (p110α), sequence (P27986 whole entry partner): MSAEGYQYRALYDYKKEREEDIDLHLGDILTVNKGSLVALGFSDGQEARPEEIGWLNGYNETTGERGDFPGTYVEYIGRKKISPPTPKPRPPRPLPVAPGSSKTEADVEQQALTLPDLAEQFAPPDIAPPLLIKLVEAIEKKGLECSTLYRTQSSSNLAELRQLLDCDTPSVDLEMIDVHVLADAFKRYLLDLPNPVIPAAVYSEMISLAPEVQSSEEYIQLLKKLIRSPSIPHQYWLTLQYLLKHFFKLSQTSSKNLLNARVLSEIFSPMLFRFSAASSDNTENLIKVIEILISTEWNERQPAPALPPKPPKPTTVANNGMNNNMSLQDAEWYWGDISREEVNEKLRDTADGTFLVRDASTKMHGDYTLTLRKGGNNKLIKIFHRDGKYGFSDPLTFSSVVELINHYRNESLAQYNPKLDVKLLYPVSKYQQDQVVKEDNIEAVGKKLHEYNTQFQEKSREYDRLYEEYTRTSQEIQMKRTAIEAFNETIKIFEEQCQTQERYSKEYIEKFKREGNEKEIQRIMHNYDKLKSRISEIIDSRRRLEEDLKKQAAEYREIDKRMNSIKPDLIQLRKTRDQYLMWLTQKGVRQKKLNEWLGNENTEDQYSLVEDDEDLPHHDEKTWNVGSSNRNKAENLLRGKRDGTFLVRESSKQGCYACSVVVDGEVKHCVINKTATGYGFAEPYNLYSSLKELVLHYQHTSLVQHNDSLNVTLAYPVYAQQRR

For `COc1ncc(-c2ccc3ncc(OCCN4CCN(C)CC4)c(=O)n3c2)cc1NS(=O)(=O)c1sc(C)nc1C` [Compound 4], the IC50 in the experiment with MCF-7 cells is 50 to 100 nM; on PI3K (p110α), no more than 1 nM.
Turning to `COc1ncc(-c2ccc3ncc(OCCN4CC5CC4CN5C)c(=O)n3c2)cc1NS(=O)(=O)c1sc(C)nc1C` (centres unmarked) [Compound 5], the results for the IC50 with MCF-7 cells and at PI3K (p110α) were greater than 250 nM and no more than 1 nM, respectively.
As to `COc1ncc(-c2ccc3ncc(OCCN4CCCC4=O)c(=O)n3c2)cc1NS(=O)(=O)c1sc(C)nc1C` [Compound 21, N-(2-Methoxy-5-(4-oxo-3-(2-(2-oxopyrrolidin-1-yl)ethoxy)-4H-pyrido[1,2-a]pyrimidin-7-yl)pyridin-3-yl)-2,4-dimethylthiazole-5-sulfonamide], the IC50 is no more than 50 nM in the experiment on MCF-7 cells and no more than 1 nM at PI3K (p110α).
In the case of `COc1ncc(-c2ccc3ncc(OCCNC(C)=O)c(=O)n3c2)cc1NS(=O)(=O)c1ccc(F)cc1Cl` [Compound 22], the IC50 in the experiment on MCF-7 cells is 100 to 250 nM; on PI3K (p110α), no more than 1 nM.
The like results for `COc1ncc(-c2ccc3ncc(OCCNS(C)(=O)=O)c(=O)n3c2)cc1NS(=O)(=O)c1ccc(F)cc1Cl` [Compound 23] were, in that order, 50 to 100 nM and no more than 1 nM.
Turning to `COc1ncc(-c2ccc3ncc(OCC4CN(C)C4)c(=O)n3c2)cc1NS(=O)(=O)c1ccc(F)cc1Cl` [Compound 28], the IC50 in the experiment with MCF-7 cells was no more than 50 nM.
`COc1ncc(-c2ccc3ncc(OCC4(C)CNC4)c(=O)n3c2)cc1NS(=O)(=O)c1ccc(F)cc1Cl` [Compound 29]: the IC50 in the experiment with MCF-7 cells is greater than 250 nM.
Turning to `COc1ncc(-c2ccc3ncc(OC4CNC4)c(=O)n3c2)cc1NS(=O)(=O)c1ccc(F)cc1Cl` [Compound 30], the IC50 in the experiment with MCF-7 cells was greater than 250 nM.
As for `COc1ncc(-c2ccc3ncc(OCC4CCCN4)c(=O)n3c2)cc1NS(=O)(=O)c1sc(C)nc1C` (centres unmarked) [Compound 33], the results for the IC50 with MCF-7 cells and at PI3K (p110α) were greater than 250 nM and no more than 1 nM, respectively.
The like results for `COc1ncc(-c2ccc3ncc(OCC4CCCN4C)c(=O)n3c2)cc1NS(=O)(=O)c1sc(C)nc1C` (centres unmarked) [Compound 34] were, in that order, 50 to 100 nM and no more than 1 nM.
Consider `COc1ncc(-c2ccc3ncc(OCCn4ccc(C)n4)c(=O)n3c2)cc1NS(=O)(=O)c1ccc(F)cc1F` [Compound 38], for which the IC50 at PI3K (p110α) fell in the range of 1 to 50 nM.
In the case of `COc1ncc(-c2ccc3ncc(OCCn4ccc(C(F)(F)F)n4)c(=O)n3c2)cc1NS(=O)(=O)c1ccc(F)cc1F` [Compound 39], the IC50 at PI3K (p110α) is 1 to 50 nM.
Regarding `COc1ncc(-c2ccc3ncc(OCCn4nccc4C)c(=O)n3c2)cc1NS(=O)(=O)c1ccc(F)cc1F` [Compound 40], the IC50 on PI3K (p110α) lay within 1 to 50 nM.
Still for that read-out and setting: the figure for `COc1ncc(-c2ccc3ncc(CN4CCOCC4)c(=O)n3c2)cc1NS(=O)(=O)c1sc(C)nc1C` [Compound 51, N-(2-Methoxy-5-(3-(morpholinomethyl)-4-oxo-4H-pyrido[1,2-a]pyrimidin-7-yl)pyridin-3-yl)-2,4-dimethylthiazole-5-sulfonamide] is 1 to 50 nM.
As for `COc1ncc(-c2ccc3ncc(CN(C)C)c(=O)n3c2)cc1NS(=O)(=O)c1sc(C)nc1C` [Compound 52], on PI3K (p110α), the IC50 lay within 1 to 50 nM.
The same measure, in the same setting: the figure for `COc1ncc(-c2ccc3ncc(OCCN4CCOCC4)c(=O)n3c2)cc1NC(=O)Nc1sc(C)nc1C` [Compound 54] is greater than 200 nM; for `COc1ncc(-c2ccc3ncc(OCCN4CCOCC4)c(=O)n3c2)cc1NC(=O)c1sc(C)nc1C` [Compound 56, N-(2-Methoxy-5-(3-(2-morpholinoethoxy)-4-oxo-4H-pyrido[1,2-a]pyrimidin-7-yl)pyridin-3-yl)-2,4-dimethylthiazole-5-carboxamide] it is greater than 200 nM.
Same read-out and setting: the figure for `COc1ncc(-c2ccc3ncc(OCCN4CCOCC4)c(=O)n3c2)cc1S(=O)(=O)Nc1sc(C)nc1C` [Compound 58, N-(2,4-dimethylthiazol-5-yl)-2-methoxy-5-(3-(2-morpholinoethoxy)-4-oxo-4H-4H-pyrido[1,2-a]pyrimidin-7-yl)pyridine-3-sulfonamide] is greater than 200 nM.
For `COc1ncc(-c2ccc3ncc(OCCN4CCS(=O)(=O)CC4)c(=O)n3c2)cc1NS(=O)(=O)c1sc(C)nc1C` [Compound 61], the IC50 on PI3K (p110α) is no more than 1 nM.
In the case of `COc1ncc(-c2ccc3ncc(OCCN4CCOCC4)c(=O)n3c2)cc1NS(=O)(=O)c1ccc(F)c(F)c1` [Compound 62], the results for the IC50 in the experiment on MCF-7 cells and at PI3K (p110α) were 100 to 250 nM and no more than 1 nM, respectively.
As for `COc1ncc(-c2ccc3ncc(OCCN4CCOCC4)c(=O)n3c2)cc1NS(=O)(=O)c1c(Cl)cccc1Cl` [Compound 63], the IC50 was no more than 50 nM in the experiment on MCF-7 cells and no more than 1 nM at PI3K (p110α).
In the case of `COc1ncc(-c2ccc3ncc(OCCN4CCOCC4)c(=O)n3c2)cc1NS(=O)(=O)c1c(F)cc(F)cc1Cl` [Compound 64], the IC50 on PI3K (p110α) is no more than 1 nM.
Turning to `COc1ncc(-c2ccc3ncc(OCCN4CCOCC4=O)c(=O)n3c2)cc1NS(=O)(=O)c1ccc(F)cc1Cl` [Compound 65], the IC50 in the experiment with MCF-7 cells is no more than 50 nM; at PI3K (p110α), no more than 1 nM.
The like results for `COc1ncc(-c2ccc3ncc(OCC(C)N4CCOCC4)c(=O)n3c2)cc1NS(=O)(=O)c1ccc(F)cc1Cl` (centres unmarked) [Compound 66] were, in that order, no more than 50 nM and 1 to 50 nM.
As to `COc1ncc(-c2ccc3ncc(OC(C)CN4CCOCC4)c(=O)n3c2)cc1NS(=O)(=O)c1ccc(F)cc1Cl` (centres unmarked) [Compound 67], the IC50 at PI3K (p110α) was 1 to 50 nM.
On to `COc1ncc(-c2ccc3ncc(OCCN4CCN(C)CC4)c(=O)n3c2)cc1NS(=O)(=O)c1ccc(F)cc1Cl` [Compound 68], for which the IC50 with MCF-7 cells was no more than 50 nM; on PI3K (p110α), no more than 1 nM.
As for `COc1ncc(-c2ccc3ncc(OCCN4CCN(CC(F)(F)F)CC4)c(=O)n3c2)cc1NS(=O)(=O)c1ccc(F)cc1Cl` [Compound 69], the IC50 with MCF-7 cells was no more than 50 nM.
`COc1ncc(-c2ccc3ncc(OCC4CCN(C)CC4)c(=O)n3c2)cc1NS(=O)(=O)c1ccc(F)cc1Cl` [Compound 71]: the IC50 on PI3K (p110α) lay within 1 to 50 nM.
As to `COc1ncc(-c2ccc3ncc(OCCCN4CCN(C)CC4)c(=O)n3c2)cc1NS(=O)(=O)c1ccc(F)cc1Cl` [Compound 72], the IC50 in the experiment with MCF-7 cells was no more than 50 nM.
For `COc1ncc(-c2ccc3ncc(OC4CN(C)C4)c(=O)n3c2)cc1NS(=O)(=O)c1ccc(F)cc1Cl` [Compound 73], the IC50 on PI3K (p110α) is 1 to 50 nM.
For `COc1ncc(-c2ccc3ncc(OC4CCN(C)CC4)c(=O)n3c2)cc1NS(=O)(=O)c1ccc(F)cc1Cl` [Compound 74], the IC50 at PI3K (p110α) lay in the range of 1 to 50 nM.
As for `COc1ncc(-c2ccc3ncc(OCC4CCNCC4)c(=O)n3c2)cc1NS(=O)(=O)c1ccc(F)cc1Cl` [Compound 76], the IC50 in the experiment with MCF-7 cells was greater than 250 nM.
Take `COc1ncc(-c2ccc3ncc(OCCN(CCO)CCO)c(=O)n3c2)cc1NS(=O)(=O)c1ccc(F)cc1Cl` [Compound 80]: the IC50 on PI3K (p110α) is no more than 1 nM.
`COc1ncc(-c2ccc3ncc(OCC4CC(F)(F)CN4)c(=O)n3c2)cc1NS(=O)(=O)c1ccc(F)cc1Cl` (centres unmarked) [Compound 83]: the IC50 on PI3K (p110α) fell in the range of 1 to 50 nM.
Consider `COc1ncc(-c2ccc3ncc(OCCN(CCO)CC(F)(F)F)c(=O)n3c2)cc1NS(=O)(=O)c1ccc(F)cc1Cl` [Compound 84], for which the IC50 on PI3K (p110α) was in the range of 1 to 50 nM.
Turning to `COc1ncc(-c2ccc3ncc(OCCN4CCOCC4C(N)=O)c(=O)n3c2)cc1NS(=O)(=O)c1ccc(F)cc1Cl` (centres unmarked) [Compound 86], the IC50 at PI3K (p110α) was no more than 1 nM.
Take `COc1ncc(-c2ccc3ncc(OCCN4C5CCC4COC5)c(=O)n3c2)cc1NS(=O)(=O)c1ccc(F)cc1Cl` [Compound 87]: at PI3K (p110α), the IC50 is no more than 1 nM.
Regarding `COc1ncc(-c2ccc3ncc(OCCN4C[C@@H](C)O[C@@H](C)C4)c(=O)n3c2)cc1NS(=O)(=O)c1ccc(F)cc1Cl` [Compound 91], in the experiment on MCF-7 cells, the IC50 was no more than 50 nM.
With `COc1ncc(-c2ccc3ncc(OCCNCC(F)(F)F)c(=O)n3c2)cc1NS(=O)(=O)c1ccc(F)cc1Cl` [Compound 92], on PI3K (p110α), the IC50 was no more than 1 nM.
Take `COc1ncc(-c2ccc3ncc(OCCN4CCN(S(C)(=O)=O)CC4)c(=O)n3c2)cc1NS(=O)(=O)c1ccc(F)cc1Cl` [Compound 93]: at PI3K (p110α), the IC50 was no more than 1 nM.
For the compound `COc1ncc(-c2ccc3ncc(OCCN4CCNC(=O)C4)c(=O)n3c2)cc1NS(=O)(=O)c1ccc(F)cc1Cl` [Compound 94], the IC50 in the experiment with MCF-7 cells is greater than 250 nM.

For the origin of these results see patent US9856256B2, “Pyridino[1,2-A]pyrimidone analogue used as P13K inhibitor” (CHIA TAI TIANQING PHARMACEUTICAL GROUP CO., LTD., priority 2014, dated 2018).
